Measurements from US8853258B2, “C-linked hydroxamic acid derivatives useful as antibacterial agents” (Pfizer Inc., priority 2009, dated 2014).
In brackets after ≈: the same amount, converted by molar mass. Like-named read-outs stand apart in the source and are kept apart here.

Experiments:
Assay type in all cases: cell-based
[1] = test system: Klebsiella pneumoniae: Ciprofloxacin-resistant isolate, ESBL, clinical isolate (KP-3700); experiment: MIC determination (CLSI), KP-3700
Outline: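 Strain KP-3700, a clinical isolate producing extended-spectrum β-lactamases and resistant to ciprofloxacin, was tested. Minimum inhibitory concentrations determined via CLSI dilution methodology (M7-A7; M100-S18).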

[2] = test system: Escherichia coli EC-1: VOGEL, mouse virulent; experiment: MIC determination (CLSI), EC-1; settings: for MIC: Escherichia coli; for EC-1 MIC: Escherichia coli EC-1 VOGEL, mouse virulent
Outline: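 E. coli Vogel, a mouse-virulent strain (EC-1), was tested. MICs were set by dilution susceptibility testing per CLSI standards M7-A7/M100-S18.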

[3] = test system: Pseudomonas aeruginosa UI-18: Wild-type (PA-7); experiment: MIC determination (CLSI), PA-7; settings: for MIC: Pseudomonas aeruginosa; for PA-7 MIC: Pseudomonas aeruginosa UI-18 wild-type PA-7
Outline: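 Wild-type P. aeruginosa UI-18 tested for minimum inhibitory concentration. Broth/agar dilution following CLSI standards (M7-A7, M100-S18).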

[4] = test system: Acinetobacter baumanii/haemolyticus: Multidrug-resistant clinical isolate (AB-3167); experiment: MIC determination (CLSI), AB-3167; settings: for MIC: Acinetobacter baumannii; for AB-3167 MIC: Acinetobacter baumanii/haemolyticus multidrug-resistant clinical isolate AB-3167
Outline: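 Multidrug-resistant clinical isolate AB-3167 (A. baumannii/haemolyticus) tested for minimum inhibitory concentration following CLSI dilution susceptibility standards M7-A7 and M100-S18.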

[5] = Table 1, MIC, read-out: PA-7 (MIC)
[6] = Table 1, MIC, read-out: AB-3167 (MIC)

Row | Structure (SMILES) | KP-3700 MIC [1] | MIC ([2]; read-out: EC-1 MIC) [µg/mL] | MIC ([3]; Table 3, read-out: PA-7 MIC) [µg/mL] | MIC ([4]; Table 3, read-out: AB-3167 MIC) [µg/mL] | MIC ([2]; read-out: EC-1: (MIC)) [µg/mL] | MIC [3, 5] [µg/mL] | MIC [4, 6] [µg/mL] | EC-1 MIC [2] | PA-7 MIC [3] | AB-3167 MIC [4] | KP-3700 MIC ([1]; Klebsiella pneumoniae ciprofloxacin-resistant ESBL clinical isolate KP-3700) [µg/mL]
1 | CC(CCc1ccc(OCCCC2CCCCC2)cc1)(C(=O)NO)S(C)(=O)=O (stereo not shown) [Example 315, 4-[4-(3-cyclohexylpropoxy)phenyl]-N-hydroxy-2-methyl-2-(methylsulfonyl)butanamide] | 16 µg/mL | 4 (≈ 9.72 µM) | 32 (≈ 77.8 µM) | 2 (≈ 4.86 µM) |  |  |  |  |  |  | 
2 | CC(CCc1ccc(-c2ccccc2O)cc1)(C(=O)NO)S(C)(=O)=O (stereo not shown) [Example 8, N-Hydroxy-4-(2′-hydroxybiphenyl-4-yl)-2-methyl-2-(methylsulfonyl)butanamide] | ≧64 mg/L |  |  |  | ≥ 64 | 8 (≈ 22 µM) | ≥ 64 |  |  |  | 
3 | Cc1ccccc1-c1ccc(CCC(C)(C(=O)NO)S(C)(=O)=O)cc1 (racemic) [Example 58] | 32 µg/mL |  |  |  |  |  |  | 8 µg/mL | 4 µg/mL | 32 µg/mL | 
4 | Cc1ccc(C)c(-c2ccc(CCC(C)(C(=O)NO)S(C)(=O)=O)cc2)c1 (racemic) [Example 73] | ≧64 mg/L |  |  |  |  |  |  | 16 µg/mL | 32 µg/mL | 4 µg/mL | 
5 | COc1cc(O)ccc1-c1ccc(CCC(C)(C(=O)NO)S(C)(=O)=O)cc1 (stereo not shown) [Example 141] | ≧64 mg/L |  |  |  |  |  |  | ≧64 mg/L | 32 µg/mL | ≧64 mg/L | 
6 | CC(CCc1ccc(-c2cnc(C#N)cn2)cc1)(C(=O)NO)S(C)(=O)=O (stereo not shown) [Example 130] | ≧64 mg/L |  |  |  |  |  |  | 16 µg/mL | 16 µg/mL | ≧64 mg/L | 
7 | CC(CCc1ccc(-c2cnc(N3CCOCC3)nc2)cc1)(C(=O)NO)S(C)(=O)=O (stereo not shown) [Example 39] | 32 µg/mL |  |  |  |  |  |  | 4 µg/mL | ≧64 mg/L | ≧64 mg/L | 
8 | CC(C)c1cccc(-c2ccc(CCC(C)(C(=O)NO)S(C)(=O)=O)cc2)c1 (stereo not shown) [Example 43] | 16 µg/mL |  |  |  |  |  |  | 4 µg/mL | 8 µg/mL | 4 µg/mL | 
9 | CCCCCCOc1ccc(CCC(C)(C(=O)NO)S(C)(=O)=O)cc1 (stereo not shown) [Example 252, 4-[4-(hexyloxy)phenyl]-N-hydroxy-2-methyl-2-(methylsulfonyl)butanamide] | 32 µg/mL | 8 (≈ 21.5 µM) | 16 (≈ 43.1 µM) | 4 (≈ 10.8 µM) |  |  |  |  |  |  | 
10 | CC(CCc1ccc(OCc2cccc(F)c2)cc1)(C(=O)NO)S(C)(=O)=O (stereo not shown) [Example 268, 4-{4-[(3-fluorobenzyl)oxy]phenyl}-N-hydroxy-2-methyl-2-(methylsulfonyl)butanamide] | 8 µg/mL | 2 (≈ 5.06 µM) | 8 (≈ 20.2 µM) | 16 (≈ 40.5 µM) |  |  |  |  |  |  | 
11 | COc1cc(CCC(C)(C(=O)NO)S(C)(=O)=O)ccc1-c1ccc(F)cc1 (stereo not shown) [Example 20, 4-(4′-Fluoro-2-methoxybiphenyl-4-yl)-N-hydroxy-2-methyl-2-(methylsulfonyl)butanamide] | 8 µg/mL |  |  |  | 1 (≈ 2.53 µM) | 16 (≈ 40.5 µM) | ≥ 64 |  |  |  | 
12 | CC(CCc1ccc(OCc2cccc(OC(F)(F)F)c2)cc1)(C(=O)NO)S(C)(=O)=O (stereo not shown) [Example 274, N-hydroxy-2-methyl-2-(methylsulfonyl)-4-(4-{[3-(trifluoromethoxy)benzyl]oxy}phenyl)butanamide] | 16 µg/mL | 4 (≈ 8.67 µM) | 16 (≈ 34.7 µM) | 16 (≈ 34.7 µM) |  |  |  |  |  |  | 
13 | Cc1cc(CCO)ccc1-c1ccc(CCC(C)(C(=O)NO)S(C)(=O)=O)cc1 (stereo not shown) [Example 156] | 8 µg/mL |  |  |  |  |  |  | 16 µg/mL | 8 µg/mL | 16 µg/mL | 
14 | COc1ccc(-c2ccc(CCC(C)(C(=O)NO)S(C)(=O)=O)cc2)cn1 (racemic) [Example 72] | 32 µg/mL |  |  |  |  |  |  | 8 µg/mL | 4 µg/mL | ≧64 mg/L | 
15 | COc1cccc(F)c1-c1ccc(CCC(C)(C(=O)NO)S(C)(=O)=O)cc1 (stereo not shown) [Example 41] | ≧64 mg/L |  |  |  |  |  |  | 16 µg/mL | 8 µg/mL | ≧64 mg/L | 
16 | CC(CCc1ccc(-c2ccc(OCCO)c(F)c2F)cc1)(C(=O)NO)S(C)(=O)=O (stereo not shown) [Example 147] | 8 µg/mL |  |  |  |  |  |  | 2 µg/mL | 1 µg/mL | 32 µg/mL | 
17 | CC(CCc1ccc(-c2ccc(F)cc2F)cc1)(C(=O)NO)S(C)(=O)=O (racemic) [Example 53] | 4 µg/mL |  |  |  |  |  |  | 1 µg/mL | 0.5 µg/mL | 8 µg/mL | 

Row | Structure (SMILES) | KP-3700 MIC [1] | MIC ([2]; read-out: EC-1 MIC) [µg/mL] | MIC ([3]; Table 3, read-out: PA-7 MIC) [µg/mL] | MIC ([4]; Table 3, read-out: AB-3167 MIC) [µg/mL] | MIC ([2]; read-out: EC-1: (MIC)) [µg/mL] | MIC [3, 5] [µg/mL] | MIC [4, 6] [µg/mL] | EC-1 MIC [2] | PA-7 MIC [3] | AB-3167 MIC [4] | KP-3700 MIC ([1]; Klebsiella pneumoniae ciprofloxacin-resistant ESBL clinical isolate KP-3700) [µg/mL]
18 | CC(CCc1ccc(OCc2ccc3ccccc3n2)cc1)(C(=O)NO)S(C)(=O)=O (stereo not shown) [Example 279, N-hydroxy-2-methyl-2-(methylsulfonyl)-4-[4-(quinolin-2-ylmethoxy)phenyl]butanamide] | ≧64 mg/L | 16 (≈ 37.3 µM) | ≥ 64 | ≥ 64 |  |  |  |  |  |  | 
19 | Cc1cc(-c2ccc(CCC(C)(C(=O)NO)S(C)(=O)=O)cc2)ccc1CCO (stereo not shown) [Example 152] | 16 µg/mL |  |  |  |  |  |  | 4 µg/mL | 2 µg/mL | ≧64 mg/L | 
20 | Cc1csc(-c2ccc(CCC(C)(C(=O)NO)S(C)(=O)=O)cc2)c1 (stereo not shown) [Example 46] | 4 µg/mL |  |  |  |  |  |  | 2 µg/mL | 2 µg/mL | ≧64 mg/L | 
21 | CCOc1ccc(CCC(C)(C(=O)NO)S(C)(=O)=O)cc1 (stereo not shown) [Example 235, 4-(4-ethoxyphenyl)-N-hydroxy-2-methyl-2-(methylsulfonyl)butanamide] | ≧64 mg/L | 32 (≈ 101 µM) | 16 (≈ 50.7 µM) | ≥ 64 |  |  |  |  |  |  | 
22 | CC(CCc1ccc(-c2cccc(O)c2F)cc1)(C(=O)NO)S(C)(=O)=O (stereo not shown) [Example 154] |  |  |  |  |  |  |  | 4 µg/mL | 1 µg/mL | ≧64 mg/L | 8
23 | CC(CCc1ccc(-c2ccc(OCCO)c(C#N)c2)cc1)(C(=O)NO)S(C)(=O)=O (stereo not shown) [Example 148] | ≧64 mg/L |  |  |  |  |  |  | 16 µg/mL | 16 µg/mL | ≧64 mg/L | 
24 | CN(C)c1ccc(-c2ccc(CCC(C)(C(=O)NO)S(C)(=O)=O)cc2)cn1 (stereo not shown) [Example 35] | 16 µg/mL |  |  |  |  |  |  | 4 µg/mL | 32 µg/mL | ≧64 mg/L | 
25 | CC(CCc1ccc(-c2cc(F)c(OCCO)c(F)c2)cc1)(C(=O)NO)S(C)(=O)=O (stereo not shown) [Example 150] | 8 µg/mL |  |  |  |  |  |  | 2 µg/mL | 2 µg/mL | 32 µg/mL | 
26 | CCCCOc1ccc(CCC(C)(C(=O)NO)S(C)(=O)=O)cc1 (stereo not shown) [Example 236, 4-(4-butoxyphenyl)-N-hydroxy-2-methyl-2-(methylsulfonyl)butanamide] | ≧64 mg/L | 16 (≈ 46.6 µM) | 8 (≈ 23.3 µM) | 32 (≈ 93.2 µM) |  |  |  |  |  |  | 
27 | CCC(CC)COc1ccc(CCC(C)(C(=O)NO)S(C)(=O)=O)cc1 (stereo not shown) [Example 239, 4-[4-(2-ethylbutoxy)phenyl]-N-hydroxy-2-methyl-2-(methylsulfonyl)butanamide] | ≧64 mg/L | 16 (≈ 43.1 µM) | 8 (≈ 21.5 µM) | 4 (≈ 10.8 µM) |  |  |  |  |  |  | 
28 | CC(CCc1ccc(OCc2nc(-c3cccc(F)c3)no2)cc1)(C(=O)NO)S(C)(=O)=O (stereo not shown) [Example 241, 4-(4-{[3-(3-fluorophenyl)-1,2,4-oxadiazol-5-yl]methoxy}phenyl)-N-hydroxy-2-methyl-2-(methylsulfonyl)butanamide] | ≧64 mg/L | 8 (≈ 17.3 µM) | 32 (≈ 69 µM) | 16 (≈ 34.5 µM) |  |  |  |  |  |  | 
29 | CC(CCc1ccc(OCCC2CCCC2)cc1)(C(=O)NO)S(C)(=O)=O (stereo not shown) [Example 312, 4-[4-(2-cyclopentylethoxy)phenyl]-N-hydroxy-2-methyl-2-(methylsulfonyl)butanamide] | ≧64 mg/L | 8 (≈ 20.9 µM) | 8 (≈ 20.9 µM) | 2 (≈ 5.21 µM) |  |  |  |  |  |  | 
30 | COc1ccc(-c2ccc(CCC(C)(C(=O)NO)S(C)(=O)=O)cc2)cc1OC (stereo not shown) [Example 33] | 32 µg/mL |  |  |  |  |  |  | 16 µg/mL | 16 µg/mL | ≧64 mg/L | 
31 | COc1ccc(-c2ccc(CCC(C)(C(=O)NO)S(C)(=O)=O)cc2)cc1 (racemic) [Example 55] | 2 µg/mL |  |  |  |  |  |  | 0.5 µg/mL | 0.5 µg/mL | 16 µg/mL | 
32 | Cc1cc(O)ccc1-c1ccc(CCC(C)(C(=O)NO)S(C)(=O)=O)cc1 (stereo not shown) [Example 140] | ≧64 mg/L |  |  |  |  |  |  | 32 µg/mL | 4 µg/mL | ≧64 mg/L | 
33 | CC(C)CCCOc1ccc(CCC(C)(C(=O)NO)S(C)(=O)=O)cc1 (stereo not shown) [Example 267, N-hydroxy-2-methyl-4-{4-[(4-methylpentyl)oxy]phenyl}-2-(methylsulfonyl)butanamide] | ≧64 mg/L | 8 (≈ 21.5 µM) | 16 (≈ 43.1 µM) | 8 (≈ 21.5 µM) |  |  |  |  |  |  | 
34 | CC(CCc1ccc(-c2ccco2)cc1)(C(=O)NO)S(C)(=O)=O (stereo not shown) [Example 103] | 16 µg/mL |  |  |  |  |  |  | 8 µg/mL | 4 µg/mL | 32 µg/mL | 
